# Assays:
# [1] = system: CT26.CL25 colon cancer tumor endothelial cells; test: Colon CT26 ex vivo model of tumor angiogenesis; format: cell-based, mouse; details: for 48 hrs (morphology observations after 48 hours): Conc. 40 μm; for cytotoxicity at 40 µM: Mus musculus, Endothelial cell, 48 h, read-out: Cell death
# Method: An ex vivo tumor angiogenesis model was developed to test the efficacy of anti-cancer candidate agents. The following protocol describes the Ex Vivo Tumor Angiogenesis Model.
# • 1. The day before the experiment, all necessary tools were sprayed with 70% ethanol and sterilized under UV light overnight, including blade, dissecting and micro-dissecting scissors and […]. 24-well dishes were placed at 4° C. to pre-chill plates and Matrigel was thawed, 24 hours before tumor dissection. • 2. 70% ethanol was sprayed on working bench. Two sterile petri dishes were prepared with 10 ml sterile PBS. The following steps 3 and 4 are necessary for mouse tumor models. For fresh human tumor, steps 3 and 4 are skipped. • 3. The tumor-bearing mice were euthanized. 70% ethanol was sprayed on the mouse and the tumor was removed using sterilized dissecting tools (avoid the fur). The tumor was rinsed in petri dish with sterile PBS to remove ethanol and fur. The tumor was transferred to a new petri dish with PBS for dissection. The dish is placed on ice. • 4. Pre-chilled sterile pipet tips were used to seed regular Matrigel in 24 well plates on ice. Matrigel (30 μl) was dropped in the middle of each well without touching the edge of the well (avoid introducing bubbles if possible). • 5. The tumor was cut in halves using the sterile blade. Healthy tumor tissue that is not necrotic and is within the tumor capsule was identified and isolated. The healthy tumor tissue was cut into small pieces. For instance, a suitable size for the tumor tissue is 0.5 mm (H)×0.5 mm (L)×0.3 mm (D) with a total volume of 0.075 mm^3. • 6. Each tumor piece was gently transferred and embedded in the Matrigel drop in the 24-well plate. The embedded piece was placed in the bottom and middle of each Matrigel drop. The plate was kept on ice all the time. • 7. After seeding the tumor pieces, plates were incubated in a 37° C. cell culture incubator without medium for 10 minutes in order for the Matrigel to solidify. • 8. Endothelial Growth Medium (0.5 ml) was added to each well and incubated at 37° C. with 5% CO2. Treatment was not added until the new endothelial cells was grown out of the tumor or were larger than 3 mm in diameter. This usually takes 4 days for the LL2 Lewis lung cancer model and 7 days for the CT26 colon cancer model. For human tumor models, the growth time is typically 2-3 weeks, depending on the tumor type. Media was changed every 4 days during prolonged culture. Typically, when the tumor tissue grows to 2 mm in diameter, it was good for drug testing. A size of about 3 mm in diameter can make visualization easier. • 9. When the assay was ready to be analyzed for cell death (e.g., 48 hours after drug addition), the dye mixture was prepared by mixing 6 μl of green dye to stain live cells (5 mg/ml Fluorescein diacetate or FDA in DMSO) with 30 μl of red dye (2.5 mg/ml Propidium iodide or PI in PBS) to stain dead cells in an Eppendorf tube. The FDA dye needs to be stored frozen in a −20° C. freezer because it has a labile ester bond. • 10. 1 μl of the dye mixture was added to each well of the 24-well dish. It is usually preferred to do one 24-well dish at a time given the amount of time needed to take pictures (the green dye is not as stable in the cells in the long term). • 11. The dish was gently rocked a few times to mix the dye with the media in the wells and incubate the dish at 37° C. for 10 min (too long incubation can make the green signal too intense). • 12. Each well was washed with 0.5 ml of sterile PBS and then 0.5 ml of phenol red free SFM was added to each well. Alternatively 0.5 ml of regular Endothelial Cell Growth Media can be added to each well if this well needs to be continuously maintained after the experiment. • 13. An inverted microscope using the 2× objective lens was used to observe morphological changes in the experimental wells. • 14. […]
# [2] = system: LL/2 lung cancer tumor endothelial cells; test: Lung LL2 ex vivo model of tumor angiogenesis; format: cell-based, mouse; details: for Cell death: drug treatment for two days, ratio of red area to total endothelial cell area; for 48 hrs (morphology observations): LL/2 tumor endothelial cells
# Procedure, shortened: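 Live/dead imaging with FDA and PI, taken e.g. 48 h post-drug under fixed channel settings, measures treatment effects on endothelial cells sprouting from Lewis lung tumor explants. Explants were seeded in Matrigel drops and grown ~4 days in endothelial growth medium, 37 °C, 5% CO2, before dosing.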
Structure (SMILES),48 hrs (morphology observations after 48 hours) [1],cytotoxicity at 40 µM [1] [%],Cell death ([2]; 40 μm) [%],48 hrs (morphology observations) ([2]; 40 μm),48 hrs (morphology observations) ([2]; 20 μm),Cell death ([2]; 20 μm) [%]
COc1ccc(S(=O)(=O)c2cnc3ccc(OC(F)(F)F)cc3c2NN2CCN(C)CC2)cc1 [Compound 85],0,50,80,–,–,–
O=[N+]([O-])c1ccc(S(=O)(=O)c2cnc3ccc(OC(F)(F)F)cc3c2N2CCC(O)CC2)cc1 [Compound 61],0,20,50,–,–,–
CCCN(CCC)c1c(S(=O)(=O)c2ccc(OC)c(OC)c2)cnc2ccc(OC(F)(F)F)cc12 [Compound 71],0,0,10,* (50% or less of cells vesicularize in cell shape),–,–
COc1ccc(S(=O)(=O)c2cnc3ccc(OC(F)(F)F)cc3c2N2CCC(O)CC2)cc1 [Compound 44],0,0,50,–,–,–
CCCCOc1ccc(S(=O)(=O)c2cnc3ccc(OC(F)(F)F)cc3c2N2CCC(N3CCC(O)CC3)CC2)cc1 [Compound 152],** (more than 50% but less than 100% of endothelial cells vesicularize in cell shape),30,–,–,* (50% or less of cells vesicularize in cell shape),20
CCCCOc1ccc(S(=O)(=O)c2cnc3ccc(C(=O)N(CC)CC)cc3c2N2CCC(N3CCCCC3)CC2)cc1 [Compound 201],* (50% or less of cells vesicularize in cell shape),10,30,0,–,–
CCOC(=O)c1ccc2ncc(S(=O)(=O)c3ccc(OC)cc3)c(N3CCC(N4CCCCC4)CC3)c2c1 [Compound 136],0,30,–,–,–,–
CCOC(=O)c1ccc2ncc(S(=O)(=O)c3ccc(CC)cc3)c(N3CCCN(CCN(CC)CC)CC3)c2c1 [Compound 131],** (more than 50% but less than 100% of endothelial cells vesicularize in cell shape),50,–,–,–,–
CCCCN(CCCC)c1c(S(=O)(=O)c2ccc(OC)c(OC)c2)cnc2ccc(SC)cc12 [Compound 124],0,20,–,–,–,–
CCOC(=O)c1ccc2ncc(S(=O)(=O)c3ccc(OC)cc3)c(N3CCC(N4CCC(O)CC4)CC3)c2c1 [Compound 138],0,20,–,–,–,–
CCOC(=O)c1ccc2ncc(S(=O)(=O)c3ccc(CC)cc3)c(N3CCC(O)(c4cccc(OC)c4)CC3)c2c1 [Compound 149],* (50% or less of cells vesicularize in cell shape),20,–,–,–,–
CCOC(=O)c1ccc2ncc(S(=O)(=O)c3ccc(OC)cc3)c(N3CCCN(C)CC3)c2c1 [Compound 144],0,30,–,–,–,–
CCc1ccc(S(=O)(=O)c2cnc3ccc(OC(F)(F)F)cc3c2N2CCC(O)(c3ccc(OC)cc3)CC2)cc1 [Compound 145],0,30,–,–,–,–
CCOC(=O)c1ccc2ncc(S(=O)(=O)c3ccc(OC)cc3)c(N3CCCC(O)C3)c2c1 (stereo not shown) [Compound 137],0,40,–,–,–,–
